Results reported in ChEMBL document CHEMBL3351624, “A semi-synthetic derivative of artemisinin, artesunate inhibits prostaglandin E2 production in LPS/IFNγ-activated BV2 microglia” (Bioorg Med Chem, 2014).
Active and inactive are the calls of the source. The calls are words filed in the database; no cut-off is given here.

Legend:
BV-2 [1] = test: Antiinflammatory activity in mouse BV2 cells assessed as inhibition of LPS/IFNgamma-induced PGE2 production at 2 uM after 24 hrs by enzyme immunoassay; assay type: functional, cell-based
[2] = Antiinflammatory activity in mouse BV2 cells assessed as LPS/IFNgamma-induced PGE2 production at 4 uM after 24 hrs by enzyme immunoassay; assay type: functional, BV-2
BV-2 [3] = test: Antiinflammatory activity in mouse BV2 cells assessed as inhibition of LPS/IFNgamma-induced COX2 expression at 0.5 to 4 uM after 24 hrs by Western blot; assay type: functional, cell-based
[4] = Antiinflammatory activity in mouse BV2 cells assessed as LPS/IFNgamma-induced COX2 expression at 4 uM after 24 hrs by Western blot; assay type: functional, BV-2
BV-2 [5] = test: Antiinflammatory activity in mouse BV2 cells assessed as inhibition of LPS/IFNgamma-induced mPGES1 expression at 0.5 to 4 uM after 24 hrs by Western blot; assay type: functional, cell-based
BV-2 [6] = test: Antiinflammatory activity in mouse BV2 cells assessed as inhibition of LPS/IFNgamma-induced IL6 production at 0.5 to 4 uM pre-incubated before LPS/IFNgamma challenge and measured 24 hrs post LPS/IFNgamma challenge by ELISA method; assay type: functional, cell-based
BV-2 [7] = test: Antiinflammatory activity in mouse BV2 cells assessed as inhibition of LPS/IFNgamma-induced TNFalpha production at 1 to 4 uM pre-incubated before LPS/IFNgamma challenge and measured 24 hrs post LPS/IFNgamma challenge by ELISA method; assay type: functional, cell-based
[8] = Toxicity against LPS/IFNgamma-induced mouse BV2 cells assessed as cell viability at 0.5 to 4 uM pre-incubated before LPS/IFNgamma challenge and measured 24 hrs post LPS/IFNgamma challenge by MTT assay; assay type: cell-based; conditions: bv-2, 24 h
[9] = molecular target: T1, Nuclear factor NF-kappa-B complex (Homo sapiens) (UniProt Q00653+P19838+Q04206); test: Inhibition of NFkappaB (unknown origin) expressed in HEK293 cells assessed as reduction in TNFalpha-induced gene transcription at 0.5 to 4 uM pre-incubated for 30 mins prior to stimulation with TNFalpha for 6 hrs by luciferase reporter gene assay; assay type: cell-based
T1 sequence (P19838 whole entry, looked up): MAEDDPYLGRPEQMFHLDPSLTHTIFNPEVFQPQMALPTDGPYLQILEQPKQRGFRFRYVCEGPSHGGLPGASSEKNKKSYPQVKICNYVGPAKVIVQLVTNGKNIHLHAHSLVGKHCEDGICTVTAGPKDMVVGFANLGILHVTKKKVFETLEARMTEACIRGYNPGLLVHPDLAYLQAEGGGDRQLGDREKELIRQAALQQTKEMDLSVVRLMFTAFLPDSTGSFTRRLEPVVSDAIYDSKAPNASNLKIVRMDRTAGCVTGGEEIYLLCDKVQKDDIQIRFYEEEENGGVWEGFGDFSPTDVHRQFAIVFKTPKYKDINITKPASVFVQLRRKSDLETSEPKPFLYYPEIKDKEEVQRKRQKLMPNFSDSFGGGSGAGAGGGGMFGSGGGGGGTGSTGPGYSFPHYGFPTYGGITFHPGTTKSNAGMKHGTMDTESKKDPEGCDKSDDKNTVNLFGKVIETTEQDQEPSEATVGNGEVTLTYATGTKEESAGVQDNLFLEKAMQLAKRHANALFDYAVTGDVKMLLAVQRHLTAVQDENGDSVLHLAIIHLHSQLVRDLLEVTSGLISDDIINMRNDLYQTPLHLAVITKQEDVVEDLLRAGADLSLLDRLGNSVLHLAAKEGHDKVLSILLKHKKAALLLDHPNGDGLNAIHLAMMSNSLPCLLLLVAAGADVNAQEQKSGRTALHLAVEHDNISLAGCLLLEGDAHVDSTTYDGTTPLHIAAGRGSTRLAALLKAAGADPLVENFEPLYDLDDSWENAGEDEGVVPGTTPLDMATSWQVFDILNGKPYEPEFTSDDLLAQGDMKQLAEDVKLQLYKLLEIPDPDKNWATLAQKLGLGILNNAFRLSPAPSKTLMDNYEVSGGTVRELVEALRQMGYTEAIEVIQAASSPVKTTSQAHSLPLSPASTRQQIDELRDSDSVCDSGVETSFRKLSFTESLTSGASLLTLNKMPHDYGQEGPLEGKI
T1 sequence (Q00653 whole entry, looked up): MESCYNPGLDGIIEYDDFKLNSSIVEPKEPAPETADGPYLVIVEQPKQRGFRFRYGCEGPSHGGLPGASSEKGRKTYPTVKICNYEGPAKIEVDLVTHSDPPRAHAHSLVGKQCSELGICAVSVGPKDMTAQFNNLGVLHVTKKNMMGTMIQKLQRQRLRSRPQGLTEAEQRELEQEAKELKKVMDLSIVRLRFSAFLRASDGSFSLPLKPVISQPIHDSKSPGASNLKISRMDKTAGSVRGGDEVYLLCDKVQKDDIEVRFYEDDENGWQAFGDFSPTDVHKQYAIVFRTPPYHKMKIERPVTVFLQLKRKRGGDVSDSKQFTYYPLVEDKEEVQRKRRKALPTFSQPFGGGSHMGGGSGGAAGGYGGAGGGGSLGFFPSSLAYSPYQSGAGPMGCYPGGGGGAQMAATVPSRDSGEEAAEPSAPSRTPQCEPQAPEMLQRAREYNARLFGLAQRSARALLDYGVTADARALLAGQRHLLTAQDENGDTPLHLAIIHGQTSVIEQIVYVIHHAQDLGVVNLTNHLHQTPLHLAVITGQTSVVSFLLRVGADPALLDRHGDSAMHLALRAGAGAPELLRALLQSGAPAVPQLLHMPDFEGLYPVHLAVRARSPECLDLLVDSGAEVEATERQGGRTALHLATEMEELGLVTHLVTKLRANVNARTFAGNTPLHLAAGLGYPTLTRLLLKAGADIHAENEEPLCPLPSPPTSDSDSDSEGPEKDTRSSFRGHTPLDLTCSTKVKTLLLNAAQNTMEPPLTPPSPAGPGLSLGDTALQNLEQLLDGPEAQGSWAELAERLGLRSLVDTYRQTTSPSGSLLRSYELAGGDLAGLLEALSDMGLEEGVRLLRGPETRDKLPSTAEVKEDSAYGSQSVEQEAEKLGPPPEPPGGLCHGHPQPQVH
T1 sequence (Q04206 whole entry, looked up): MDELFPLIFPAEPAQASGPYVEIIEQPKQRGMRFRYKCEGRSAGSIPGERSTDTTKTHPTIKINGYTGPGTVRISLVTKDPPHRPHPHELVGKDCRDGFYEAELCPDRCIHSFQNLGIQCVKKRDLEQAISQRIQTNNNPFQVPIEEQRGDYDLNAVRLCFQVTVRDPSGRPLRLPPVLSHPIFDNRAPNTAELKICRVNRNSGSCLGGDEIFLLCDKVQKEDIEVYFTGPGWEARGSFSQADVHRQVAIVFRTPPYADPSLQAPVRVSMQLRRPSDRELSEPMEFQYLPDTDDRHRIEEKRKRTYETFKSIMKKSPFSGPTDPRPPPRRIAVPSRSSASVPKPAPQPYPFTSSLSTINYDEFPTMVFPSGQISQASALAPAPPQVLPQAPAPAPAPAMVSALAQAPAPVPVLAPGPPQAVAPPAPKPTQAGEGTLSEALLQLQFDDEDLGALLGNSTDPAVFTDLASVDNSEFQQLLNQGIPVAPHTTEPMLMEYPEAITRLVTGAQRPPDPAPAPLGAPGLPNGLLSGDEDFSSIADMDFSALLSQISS

[10] = molecular target: T1, Nuclear factor NF-kappa-B complex (Homo sapiens); test: Inhibition of NFkappaB (unknown origin) expressed in HEK293 cells assessed as TNFalpha-induced gene transcription at 4 uM pre-incubated for 30 mins prior to stimulation with TNFalpha for 6 hrs by luciferase reporter gene assay; assay type: cell-based; design: scale not given: the % may be the effect or the level left
BV-2 [11] = test: Inhibition of IKK in mouse BV2 cells assessed as LPS/IFNgamma-induced IkappaB phosphorylation level at 0.5 uM pre-incubated for 30 mins before LPS/IFNgamma challenge for 1 hr by Western blot method; assay type: cell-based; design: scale not given: the % may be the effect or the level left
BV-2 [12] = test: Inhibition of IKK in mouse BV2 cells assessed as LPS/IFNgamma-induced IkappaB phosphorylation level at 1 uM pre-incubated for 30 mins before LPS/IFNgamma challenge for 1 hr by Western blot method; assay type: cell-based; design: scale not given: the % may be the effect or the level left
BV-2 [13] = test: Inhibition of IKK in mouse BV2 cells assessed as LPS/IFNgamma-induced IkappaB phosphorylation level at 2 uM pre-incubated for 30 mins before LPS/IFNgamma challenge for 1 hr by Western blot method; assay type: cell-based; design: scale not given: the % may be the effect or the level left
BV-2 [14] = test: Inhibition of IKK in mouse BV2 cells assessed as LPS/IFNgamma-induced IkappaB phosphorylation level at 4 uM pre-incubated for 30 mins before LPS/IFNgamma challenge for 1 hr by Western blot method; assay type: cell-based; design: scale not given: the % may be the effect or the level left
BV-2 [15] = test: Inhibition of IKK in mouse BV2 cells assessed as reduction in LPS/IFNgamma-induced IkappaB degradation at 0.5 to 4 uM pre-incubated for 30 mins before LPS/IFNgamma challenge for 1 hr by Western blot method; assay type: cell-based
BV-2 [16] = test: Inhibition of IKK in mouse BV2 cells assessed as reduction in LPS/IFNgamma-induced IkappaB phosphorylation level at 4 uM pre-incubated for 30 mins before LPS/IFNgamma challenge for 1 hr by ELISA method; assay type: cell-based
BV-2 [17] = test: Inhibition of IKK in mouse BV2 cells assessed as reduction in LPS/IFNgamma-induced IkappaB degradation at 0.5 to 4 uM pre-incubated for 30 mins before LPS/IFNgamma challenge for 1 hr by ELISA method; assay type: cell-based
[18] = molecular target: T2, Inhibitor of nuclear factor kappa-B kinase subunit alpha (Mus musculus) (UniProt Q60680); test: Inhibition of LPS/IFNgamma-induced IKKalpha phosphorylation in mouse BV2 cells at 1 to 4 uM pre-incubated for 30 mins before LPS/IFNgamma challenge for 1 hr by Western blot method; assay type: cell-based; conditions: BV-2
T2 sequence (whole entry): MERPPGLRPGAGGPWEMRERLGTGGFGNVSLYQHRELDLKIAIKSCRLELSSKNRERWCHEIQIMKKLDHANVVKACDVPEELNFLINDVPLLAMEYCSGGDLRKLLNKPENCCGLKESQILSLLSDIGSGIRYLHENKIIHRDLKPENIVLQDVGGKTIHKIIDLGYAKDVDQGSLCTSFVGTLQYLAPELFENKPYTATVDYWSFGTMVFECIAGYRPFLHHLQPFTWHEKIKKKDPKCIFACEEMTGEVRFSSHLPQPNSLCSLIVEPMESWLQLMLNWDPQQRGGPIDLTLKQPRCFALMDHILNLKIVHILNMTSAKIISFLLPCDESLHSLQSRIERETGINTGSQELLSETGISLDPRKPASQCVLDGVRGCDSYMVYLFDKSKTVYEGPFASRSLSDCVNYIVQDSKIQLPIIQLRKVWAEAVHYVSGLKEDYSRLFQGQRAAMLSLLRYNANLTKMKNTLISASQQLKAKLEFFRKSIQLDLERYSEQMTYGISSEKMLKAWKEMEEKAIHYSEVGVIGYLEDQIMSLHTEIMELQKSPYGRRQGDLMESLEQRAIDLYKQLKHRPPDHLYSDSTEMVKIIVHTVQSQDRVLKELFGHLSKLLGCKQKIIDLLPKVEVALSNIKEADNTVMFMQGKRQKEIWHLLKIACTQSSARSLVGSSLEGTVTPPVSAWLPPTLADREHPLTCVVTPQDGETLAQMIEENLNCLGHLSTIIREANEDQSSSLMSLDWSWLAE

[19] = molecular target: T3, Inhibitor of nuclear factor kappa-B kinase subunit beta (Mus musculus) (UniProt O88351); test: Inhibition of LPS/IFNgamma-induced IKKbeta phosphorylation in mouse BV2 cells at 1 to 4 uM pre-incubated for 30 mins before LPS/IFNgamma challenge for 1 hr by Western blot method; assay type: cell-based; conditions: BV-2
T3 sequence (whole entry): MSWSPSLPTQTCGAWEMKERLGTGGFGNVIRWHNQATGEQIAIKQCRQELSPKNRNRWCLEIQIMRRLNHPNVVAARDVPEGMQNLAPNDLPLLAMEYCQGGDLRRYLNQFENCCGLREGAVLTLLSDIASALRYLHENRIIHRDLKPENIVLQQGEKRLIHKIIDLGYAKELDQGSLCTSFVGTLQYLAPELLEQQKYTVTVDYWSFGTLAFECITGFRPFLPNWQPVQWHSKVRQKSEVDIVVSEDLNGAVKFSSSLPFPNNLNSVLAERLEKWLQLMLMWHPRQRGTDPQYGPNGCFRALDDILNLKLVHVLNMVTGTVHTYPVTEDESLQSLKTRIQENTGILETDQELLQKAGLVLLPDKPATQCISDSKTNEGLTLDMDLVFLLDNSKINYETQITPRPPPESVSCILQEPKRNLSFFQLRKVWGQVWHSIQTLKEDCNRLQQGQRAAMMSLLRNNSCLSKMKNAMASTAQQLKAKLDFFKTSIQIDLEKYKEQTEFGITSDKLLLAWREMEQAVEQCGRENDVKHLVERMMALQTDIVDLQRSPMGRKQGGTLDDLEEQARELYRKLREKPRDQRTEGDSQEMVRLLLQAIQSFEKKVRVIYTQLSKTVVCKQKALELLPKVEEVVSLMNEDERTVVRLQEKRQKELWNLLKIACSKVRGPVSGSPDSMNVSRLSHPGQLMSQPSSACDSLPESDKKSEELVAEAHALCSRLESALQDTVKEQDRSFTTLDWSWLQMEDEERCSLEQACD

[20] = molecular target: T4, MAP kinase p38 (Mus musculus) (UniProt P47811+O08911+Q9WUI1+Q9Z1B7); test: Inhibition of LPS/IFNgamma-induced p38 phosphorylation in mouse BV2 cells at 1 to 4 uM pre-incubated for 30 mins before LPS/IFNgamma challenge for 1 hr by Western blot method; assay type: cell-based; conditions: BV-2
[21] = molecular target: T4, MAP kinase p38 (Mus musculus); test: Inhibition of p38 in mouse BV2 cells assessed as reduction in LPS/IFNgamma-induced MAPKAPK2 phosphorylation at 1 to 4 uM pre-incubated for 30 mins before LPS/IFNgamma challenge for 1 hr by Western blot method; assay type: cell-based; conditions: BV-2

inhibition [9]: Active
Activity [10]: 35.4%
inhibition [18]: Active
inhibition [19]: Active
inhibition [20]: Active
inhibition [21]: Active
SMILES: C[C@H]1[C@H](OC(=O)CCC(=O)O)O[C@@H]2O[C@@]3(C)CC[C@H]4[C@H](C)CC[C@@H]1[C@@]24OO3 [ARTESUNATE]
inhibition (BV-2 [1]): Active
Activity [2]: 38.8%
inhibition (BV-2 [3]): Active
Activity [4]: 55%
inhibition (BV-2 [5]): Active
inhibition (BV-2 [6]): Dose-dependent effect
inhibition (BV-2 [7]): Active
Activity [8]: Non-toxic
Activity (BV-2 [11]): 68.8%
Activity (BV-2 [12]): 56.4%
Activity (BV-2 [13]): 44.3%
Activity (BV-2 [14]): 44.4%
inhibition (BV-2 [15]): Active
inhibition (BV-2 [16]): Active
inhibition (BV-2 [17]): Active
